Test results published in US20050233984A1, “Composition for preventing or treating degenerative brain diseases comprising a hydrolysate of ginsenosides” (Digital Biotech Co., Ltd., priority 2002, published 2005).

What was measured:
[1] = test system: neuroblastoma B103 cell line; test: MTT test: anti-oxidative effect, H2O2 in place of beta-amyloid; format: cell-based; details: B103 cells, H2O2-only control = 100%
Protocol: (§1) 5×10^3 cells of neuroblastoma B103 cell line (donated by Dr. David Schubert of the Salk Institute, USA) were placed in each well of a 96-well plate with 100 μl of DMEM (Dulbecco's Minimal Eagle's Medium) containing 10% fetal bovine serum (FBS), and cultured at 37° C. under 8% CO2 for 1 day. After changing the medium to serum-free DMEM, the cells were treated with various concentrations of test compounds and, 1 hour later, with 25 μM of beta-amyloid (25-35 peptide; US peptide, CA, USA). The cells were cultured at 37° C. for 18 hours, treated with 15 μl of MTT solution [10 mg/ml solution of 3-(4,5-dimethyl-2-thiazolyl)-2,5-diphenyl-2H-tetrazolium bromide in phosphate buffered saline (PBS)], and allowed to react at 37° C. for 3 to 4 hours. 100 μl of lysis buffer (10% SDS, 50% dimethylformamide, pH 4.7) was added to the wells, and the cells were cultured overnight at room temperature and relative humidity of 90%. Optical density (OD) of each well was measured at […] and 630 nm, respectively, using a scanning multiwell spectrophotometer, and then the OD value at 630 nm was subtracted from that at 570 nm.
In order to examine whether compounds originating from ginseng can block oxidative stress, the procedure of Example 1 was repeated except for using 1 μM of H2O2 in place of beta-amyloid, and the survival rates of the neural cells were determined.

α-secretase = test: sAPPα secretion by Western blotting in B103 cells; format: cell-based; details: 1 μM, 18 hours, compared with untreated control, FIG. 5
Protocol: In order to examine whether the ginseng-originated compounds can inhibit beta-amyloid production, the activity of α-secretase, which cleaves beta-amyloid, was examined.
1×10^6 cells of neuroblastoma B103 cell line (donated by Dr. David Schubert of the Salk Institute, USA), which secretes APP (amyloid precursor protein), were plated on a […] with 100 μl of DMEM medium containing 10% FBS (Fetal Bovine Serum) and cultured overnight at […] under 8% CO2. The medium was replaced with serum-free DMEM (Gibco, USA), and PPD, PPT or PDBu (phorbol-12, 13-dibutyrate: Sigma Co., USA) was added thereto at a concentration of 1 μM each. The cells were cultured further for 18 hours. The supernatant was isolated from each culture solution and concentrated through a concentration filter (viva spin centricon, obtained from: Vivascience, Binbrook Hill, Binbrook, England). The concentrate was prepared to have a protein concentration of 2 μg/ml and then subjected to electrophoresis on a 8% SDS-PAGE gel.
Protein bands on the gel were transferred to PVDF (polyvinylidene fluoride) membrane (Millipore Co., Bedford, Mass., USA) and blocked with 5% skim milk. The bands on PVDF were reacted with sAPPα-specific antibody 6E10 (1:2000 dilution, Cat. No. 320-05, Senetek, Maryland heights, Mo., USA) at room temperature for 2 hours. […] The protein bands were then quantified via image analysis.

synaptophysin = test: Synaptic density: synaptophysin in hippocampus and cortex by Western blotting; format: in vivo; details: 0.5 mg/kg intraperitoneally once a day for 4 days, C57BL/6 mice
Protocol: 1 mg/kg of ginsenoside Rc or Mc, or compound Y or K, or 0.5 mg/kg of PPD or PPT was intraperitoneally administered to C57BL/6 mice (9-week old, weight: about 25 g) once a day for 4 days. Then, the brain of the mouse was removed and the hippocampus and cortex were separated therefrom. The amounts of synaptophysin, a protein marker of synaptic vesicle, in the hippocampus and cortex were quantified with Western blotting and an image analysis with a densitometer (LAS100, Fujifilm, Japan) employing a synaptophysin-specific antibody (Cat #902 314, Boehringer Mannheim, Germany).

[2] = test system: neuroblastoma B103 cell line; test: MTT test: apoptosis induced by staurosporin; format: cell-based; details: B103 cells, staurosporin-only control = 100%
Protocol: as §1
Further, in order to examine whether compounds originating from ginseng can block apoptosis, […], and the survival rates of the neural cells were determined.

[3] = test system: neuroblastoma B103 cell line; test: MTT test: preventing the toxicity of beta-amyloid; format: cell-based; details: for Survival rate (%): B103 cells, beta-amyloid-only control = 100%
Protocol: In order to examine the activities of the compounds prepared in the Reference Example in preventing the toxicity of beta-amyloid, the MTT analysis (Gillardon, F. et al., Brain Research. No. 6: pp. 169-172 (1996)) was carried out as follows.
as §1, with “After changing the medium to serum-free DMEM, the cells were treated with various concentrations of test compounds and, 1 hour later, with 25 μM of beta-amyloid (25-35 peptide; US peptide, CA, USA).” left out
Setting the survival rate of the control group treated only with beta-amyloid as 100%, relative survival rates of the experimental groups treated with compound Y, ginsenosides Mc and Rc, PPD and PPT, respectively, were calculated, and the results are shown in Table 2 and FIG. 1. The obtained values were statistically significant.
When the same procedure as above was repeated except that the cells were treated simultaneously with the test compound and beta-amyloid, or treated with the test compound one hour after the beta-amyloid treatment, the results were almost the same as above.
Further, in order to assess the concentration-dependent activity of a test compound, the above procedure was repeated using PPT at concentrations ranging from […].

[4] = test compound 1 μM alone, without H2O2
[5] = test compound 1 μM + 0.1 μM staurosporin
[6] = test compound 1 μM alone, without staurosporin
[7] = test compound 1 μM + 25 μM beta-amyloid (25-35), 18 hours
[8] = test compound 1 μM alone, without beta-amyloid

SMILES	Survival rate (%) ([1]; test compound 1 μM + 1 μM H2O2)	Survival rate (%) [1, 4] [%]	sAPPα secretion level (α-secretase)	amount of synaptophysin in cortex (synaptophysin)	amount of synaptophysin in hippocampus (synaptophysin)	Survival rate (%) [2, 5] [%]	Survival rate (%) [2, 6] [%]	Survival rate (%) [3, 7] [%]	Survival rate (%) [3, 8] [%]	Survival rate (%) ([1]; test compound 10 μM + 1 μM H2O2)	Survival rate (%) ([1]; test compound 10 μM alone, without H2O2)	Survival rate (%) ([2]; test compound 10 μM + 0.1 μM staurosporin)	Survival rate (%) ([2]; test compound 10 μM alone, without staurosporin)	concentration-dependent inhibitory activity against beta-amyloid toxicity (in words) ([3]; FIG. 2, PPT concentration series)	Survival rate (%) ([3]; test compound 10 μM + 25 μM beta-amyloid (25-35), 18 hours)	Survival rate (%) ([3]; test compound 10 μM alone, without beta-amyloid)
CC(C)=CCCC(C)(O)[C@H]1CC[C@]2(C)[C@@H]1[C@H](O)C[C@@H]1[C@@]3(C)CC[C@H](O)C(C)(C)[C@@H]3CC[C@]12C (stereo in doubt) [PPD, protopanaxadiol]	219.6 ± 3.0	494.3 ± 3.5	higher	no change	significantly increased	89.2 ± 1.0	176.5 ± 3.5	106.7 ± 6.9	137.7 ± 4.8	–	–	–	–	–	–	–
CC(C)=CCC[C@](C)(O)[C@H]1CC[C@]2(C)[C@@H]1[C@H](O)C[C@@H]1[C@@]3(C)CC[C@H](O)C(C)(C)[C@@H]3[C@@H](O)C[C@]12C [PPT, protopanaxatriol]	381.3 ± 0.9	516.1 ± 1.6	higher	no change	significantly increased	107.8 ± 2.3	169.7 ± 1.6	106.6 ± 1.2	157.4 ± 3.3	457.8 ± 2.5	516.5 ± 1.2	104.6 ± 2.7	173.1 ± 1.2	began to show its inhibitory activity at the μM level	119.7 ± 8.5	140.3 ± 6.4
